Earlier results in US8906890B2, “Very low-dosed solid oral dosage forms for HRT” (Bayer Intellectual Property GmbH, priority 2010, dated 2014).

Conditions: 2 mg E2 orally

**Q.** Which estrogen-related adverse events does the source give for C[C@]12CC[C@@H]3c4ccc(O)cc4CC[C@H]3[C@@H]1CC[C@@H]2O [E2, estradiol] here?
**A.** increased estrogen-related adverse events
